Data taken from US8030284B2, “Treatment of eye disorders characterized by an elevated intraocular pressure by siRNAs” (Sylentis S.A.U., priority 2004, dated 2011).

Experiments:
AC2 = test: siRNA interference in cell cultures, real time PCR of AC2 transcript; type: cell-based, rabbit; conditions: normalized to actin relative to cell control, mean ± SD
Description: To check the specificity of the siRNA interference different cell cultures that express the target genes were employed. The cells used for these experiments were: rabbit non-pigmented ciliary epithelium cells NPE, human ciliary epithelium cells OMDC, and human embryonic kidney cells HEK293. The cells are incubated with the corresponding siRNA duplexes, and analysis of the downregulation of expression of the target gene is carried out.
Several examples of techniques well known in the art are as follows: We can perform a single transfection of siRNA duplex using a cationic lipid, such as RNAiFect Transfection Reagent (Qiagen) and Lipofectamine 2000 Reagent (Invitrogen) and assay for silencing 24, 48 and 72 hours after transfection.
A typical transfection protocol can be performed as follows: For one well of a 6-well plate, we transfect using 100 nM as final concentration of siRNA. Following RNAiFect protocol, we seed, the day before transfection, 2-4×10^5 cells per well in 3 ml of an appropriate growth medium, containing DMEM, 10% serum, antibiotics and glutamine, and incubate cells under normal growth conditions (37° C. and 5% CO2). On the day of transfection, cells have to be at 30-50% confluence. We dilute 15 ul of 20 uM siRNA duplex (corresponding to 100 nM final concentration) in 85 ul of Buffer EC-R, to give a final volume of 100 ul, and mix by vortexing. For complex formation, we add 19 ul of RNAiFect Transfection Reagent to the diluted siRNA and mix by pipetting or vortexing. After incubating the samples for 10-15 minutes at room temperature to allow formation of transfection complexes, we add the complexes drop-wise onto the cells with 2.9 ml of fresh growth medium low in antibiotics. After swirling the plates to ensure uniform distribution of the transfection complexes, we incubate the cells under their normal growth conditions. The day after, the complexes are removed and fresh and complete growth medium is added. To monitor gene silencing, cells are collected at 24, 48 and 72 hours post-transfection. The Lipofectamine 2000 Reagent protocol is quite similar. The day before transfection, we seed 2-4×10^5 cells per well in 3 ml of an appropriate growth medium, containing DMEM, 10% serum, antibiotics and glutamine, and incubate cells under normal growth conditions (37° C. and 5% CO2). On the day of transfection, cells have to be at 30-50% confluence. We dilute 12.5 ul of 20 uM siRNA duplex (corresponding to 100 nM final concentration) in 250 ul of DMEM, to give a final volume of 262.5 ul, and mix. Also, 6 ul of Lipofectamine 2000 is diluted in 250 ul of DMEM and mixed. After a 5 minutes incubation at room temperature, the diluted oligomer and the diluted Lipofectamine are combined to allow complex formation during a 20 minutes incubation at room temperature. […]

[1] = tested on: normotensive New Zealand rabbit; test: IOP reduction after topical application to the cornea; type: in vivo, New Zealand White rabbit; conditions: topical 40 ul to cornea, once daily for four days; control = contralateral eye with vehicle alone; mean of maximum reduction ± SEM
Excerpt: The New Zealand rabbit is the gold standard in experimental platforms designed to study IOP. It is easy to handle and it has a big eye, similar in size to the human organ. In addition, present equipment to measure IOP is not suited to use in animals with small eyes such as mice or rats. Finally, rabbits have an IOP (around 23 mm Hg) that can be brought down to up to 40% its value using local commercial hypotensive medication. Thus, although it is possible to generate rabbit glaucoma models (for example, surgically blocking episclerotic veins or artificially occluding the trabecular meshwork), we have used normotensive rabbits since, in our hands, the pharmacological decrease in IOP can be easily and reproducibly measured.
Normotensive New Zealand White rabbits (males, 2-3 kg) were used. The animals were kept in individual cages with free access to food and water. They were submitted to artificial 12 hours light/darkness cycles, to avoid uncontrolled circadian oscillations of IOP Animal handling and treatment were carried out in accordance with the European Communities Council Directive (86/609/EEC) and the statement of the Association for Research in Vision and Ophthalmology on the Use of Animals in Ophthalmic and Vision Research.
The drugs were typically administered by instilling a small volume (typically 40 μL) on the corneal surface. Contralateral eyes were treated with the vehicle alone and could be used as controls in each experiment […] there is a sympathy phenomenon with the other eye. Multiple experiments in the same animal should be abolished.
IOP measurements were done using a contact tonometer (TONOPEN XL, Mentor, Norwell, Mass.). The TonoPen tonometer is very convenient due to its reliability and small size. Measurements with this instrument were performed delicately applying the tonometer's sensor to the corneal surface. […] All measurements fell within this interval: the mean baseline value of intraocular pressure was 17.0±0.39 mm Hg (n=100). […] In order to avoid distress to the animal, rabbits were topically anesthetized (oxibuprocaine/tetracaine, 0.4%/1%, in a saline solution (1/4 v:v). The solution was applied (10 μl) to the cornea before each measurement of intraocular pressure was made. siRNA or saline was applied topically to the cornea in volumes of 40 μl.
The standard protocol for the siRNA application in rabbit was as follows. Doses of siRNA in saline solution (0.9% w/v) to a final volume of 40 ul, were applied to one eye each day during four consecutive days. The opposite eye was taken as a control and 40 ul of sterile saline (0.9% w/v) were instilled on it, at the same time points. The IOP was measured before each application and at 2 h, 4 h and 6 h following the instillation, during 10 days. Maximum responses were observed between second and third day. To compare the effect of siRNA with other hypotensive compounds, Xalatan (latanoprost 0.005%) and Trustop (Dorzolamide 2%) were assayed and IOP measured in the same conditions.
Those siRNAs selected by the in vitro assays were applied to the animal model, following the protocol previously described. To avoid the effect of IOP fluctuations due to circadian cycles, all the applications were performed at the same time. To determine the siRNA effect, intraocular pressures (IOPs) were measured as previously mentioned.
The data are summarized in table II where values represent the mean of the maximum percentage of IOP reduction after siRNA treatment once normalized and their standard deviations. The decrease in IOP was statistically significant for all the treated targets. […] The siRNAs used in these experiments correspond to the human targets given in FIGS. 2A-2R as follows: • AC2: rabbit sequence homologous to human SEQ. ID. 73 • AC4: rabbit sequence identical to human SEQ. ID. 5 • AC12: rabbit sequence identical to human SEQ. ID. 522 • ADRB1: rabbit sequence identical to human SEQ. ID. 105 • ADRB2: rabbit sequence homologous to human SEQ. ID. […]

Molecule | % of gene transcript level (AC2; 24 h siRNA treatment) | % of gene transcript level (AC2; 48 h siRNA treatment) | IOP reduction (% of the control) [1]
AC2 siRNA3: siRNA against AC2: rabbit sequence identical to human SEQ. ID. 66 (CTTCACTTGGTTCACTGGA; listed as DNA, chemistry not given here; listed as Homo sapiens) | 35.30 ± 9.73% | 51.14 ± 16.49% | 
AC2 siRNA2: siRNA against AC2: rabbit sequence identical to human SEQ. ID. 54 (CTTCCCTGAGGATCCTCAA; listed as DNA, chemistry not given here; listed as Homo sapiens) | 37.97 ± 9.78% | 61.45 ± 9.62% | 
AGTR2: siRNA against AGTR2: rabbit sequence identical to human SEQ. ID. 774 (GCATCTTATATAGTTCCCC; listed as DNA, chemistry not given here; listed as Homo sapiens) |  |  | 11.22 ± 1.53 % of the control
ATP1A1: siRNA against ATP1A1: rabbit sequence identical to human SEQ. ID. 1399 (CTGGAACTCTGACTCAGAA; listed as DNA, chemistry not given here; listed as Homo sapiens) |  |  | 18.13 ± 1.39 % of the control
ATP1B2: siRNA against ATP1B2: rabbit sequence identical to human SEQ. ID. 1820 (GTTCCACGTGAACTACACA; listed as DNA, chemistry not given here; listed as Homo sapiens) |  |  | 16.32 ± 0.91 % of the control
ADRB1: siRNA against ADRB1: rabbit sequence identical to human SEQ. ID. 105 (CGACCCCAAGTGCTGCGAC; listed as DNA, chemistry not given here; listed as Homo sapiens) |  |  | 28.04 ± 2.98 % of the control
CC(C)OC(=O)CCC/C=C\C[C@@H]1[C@@H](CC[C@@H](O)CCc2ccccc2)[C@H](O)C[C@@H]1O [Latanoprost, latanoprost, reference compound] |  |  | 25.46 ± 5.24 % of the control
CCN[C@H]1C[C@H](C)S(=O)(=O)c2sc(S(N)(=O)=O)cc21 [Dorzolamide, reference compound] |  |  | 16.41 ± 2.38 % of the control
